Article PMC4471902, “Block of NMDA receptor channels by endogenous neurosteroids: implications for the agonist induced conformational states of the channel vestibule” (Scientific Reports, 2015)
Counter-ions that a name gives are not always drawn.

How the values were obtained:
[1] = biological target: T1, GluN1ΔC/GluN2BΔC (Rattus norvegicus, UniProt P35439+Q00960); assay: Whole-cell patch-clamp of C-terminal truncated NMDARs in HEK293 cells; format: cell-based
T1 construct: expressed in transfected cells; host or cells: HEK293
Source text: Human embryonic kidney (HEK293) cells were transfected with expression vectors containing: GluN1–1a (GenBank accession number U08261)[52]; GluN2B (GenBank accession number M91562); GluN1-4a(F484A), (generous gift from Dr. J. J. Woodward)[53] (Smothers & Woodward, 2009); GluN3A (generous gift from Dr. S. A. Lipton)[54] (GenBank accession number NM_138546); GluN1ΔN with deleted 354 amino acids in the NTD (32 to 386); GluN1ΔC with an introduced stop codon in 838 of the CTD GluN2BΔN) with deleted 354 amino acids in the NTD (32 to 386); GluN2BΔC with an introduced stop codon in 844 of the CTD[55]; GluR0 (GenBank accession number Synechocystis PCC 6803) (generous gift from Dr. M. L. Mayer)[18]; and green fluorescent protein (GFP) (pQBI 25, Takara, Tokyo, Japan) genes, as described previously. The Quick-Change site-directed mutagenesis kit (Agilent Technologies, Santa Clara, CA, USA) was used to generate specific point mutations in the M1/M3 region according to the manufacturer’s instructions using manually designed primers purchased from Sigma. Modified DNA plasmids were transformed into competent XL10-Gold E.coli cells, positive clones were selected, and isolated DNA was sequenced. […]
The IC50 was determined from a single dose of a steroid using the formula [drawing 1] where I is the relative degree of inhibition and [steroid] is the steroid concentration used. […]

[2] = tested on: GluR0 (potassium-selective prokaryotic glutamate receptor); assay: Whole-cell patch-clamp of GluR0 receptor responses in transfected HEK293 cells; format: cell-based, Synechocystis PCC 6803; conditions: 1 mM glutamate, PA-S 300 µM
Source text: Human embryonic kidney (HEK293) cells were transfected with expression vectors containing: GluN1–1a (GenBank accession number U08261)[52]; GluN2B (GenBank accession number M91562); GluN1-4a(F484A), (generous gift from Dr. J. J. Woodward)[53] (Smothers & Woodward, 2009); GluN3A (generous gift from Dr. S. A. Lipton)[54] (GenBank accession number NM_138546); GluN1ΔN with deleted 354 amino acids in the NTD (32 to 386); GluN1ΔC with an introduced stop codon in 838 of the CTD GluN2BΔN) with deleted 354 amino acids in the NTD (32 to 386); GluN2BΔC with an introduced stop codon in 844 of the CTD[55]; GluR0 (GenBank accession number Synechocystis PCC 6803) (generous gift from Dr. M. L. Mayer)[18]; and green fluorescent protein (GFP) (pQBI 25, Takara, Tokyo, Japan) genes, as described previously. The Quick-Change site-directed mutagenesis kit (Agilent Technologies, Santa Clara, CA, USA) was used to generate specific point mutations in the M1/M3 region according to the manufacturer’s instructions using manually designed primers purchased from Sigma. Modified DNA plasmids were transformed into competent XL10-Gold E.coli cells, positive clones were selected, and isolated DNA was sequenced. […] All mutations were verified by DNA sequencing (Macrogen, Seoul, Korea or SeQme, Dobris, Czech Republic). […]

CC(=O)[C@H]1CC[C@H]2[C@@H]3CC[C@@H]4C[C@H](OS(=O)(=O)O)CC[C@]4(C)[C@H]3CC[C@]12C [PA-S, 20-oxo-5β-pregnan-3α-yl sulfate]
IC50 [1]: 34 ± 3 µM | effect on glutamate-induced responses [2]: inhibited
